For one assay, the target named is BRD4 (Homo sapiens, UniProt O60885). As to the kind of experiment: In vitro AlphaScreen protein binding assay (competition with biotinylated JQ1). On the technique in general: Bead proximity is the source of the signal in Alpha formats.
Assay [1] concerns BRD4-dependent Nut-Midline Carcinoma line 797. As to the kind of experiment: Cell viability (ATPlite) in BRD4 dependant cell line 797. The following applies: Homo sapiens. Background: In ATP-based viability assays light output follows the ATP content of the culture.
Setting [2] is: Table 1, in vitro, AlphaScreen, inhibiting the activity of BRD4.
[3] abbreviates: read-out: BRD4--IC50, Table 6, biochemical.
Where [4] appears, read: read-out: BRD4--IC50, Table 7, biochemical.

Where two headings read alike, the source gives them in different places.

As usually defined, the IC50 is the concentration at which inhibition is half-maximal. What is called EC50 is the concentration that produces a half-maximal response. For the compound `CCCCN1C(=O)c2ccccc2NC(=O)C1c1ccc(-c2c(C)noc2C)c(OC)c1` (centres unmarked) [UMB18, 2-Butyl-3-(4-(3,5-dimethylisoxazol-4-yl)-3-methoxyphenyl)-2,3-dihydro-1H-benzo[e][1,4]diazepine-1,4(5H)-dione], the IC50 on BRD4 (read-out: BRD4--IC50, Table 5, biochemical) is 13 µM. Also, the EC50 in assay [1] (read-out: 797--EC50 (μM)) was 9.91 µM.
At BRD4 (setting [2]), `Cc1noc(C)c1-c1cccc(-c2nc3ccccn3c2NCc2ccccc2)c1` [UMB26] displayed an IC50 of 5.1 µM. Besides, in assay [1], the EC50 was determined as 20.2 µM.
With `COc1ccc(Nc2c(-c3ccc(-c4c(C)noc4C)cc3)nc3cc(OC)ncn23)cc1` [UMB24, 2-(4-(3,5-Dimethylisoxazol-4-yl)phenyl)-7-methoxy-N-(4-methoxy-phenyl)imidazo[1,2-c]pyrimidin-3-amine], the IC50 at BRD4 (setting [2]) and at BRD4 (setting [3]) was 2.89 µM in each case. Also, the EC50 in assay [1] and in assay [1] (read-out: 797--EC50 (μM)) was 11.8 µM in each case.
With `Cc1noc(C)c1-c1ccc(-c2nc3cnccn3c2NCC(=O)OC(C)(C)C)cc1` [Compound 24a, Tert-butyl (2-(4-(3,5-dimethylisoxazol-4-yl)phenyl)imidazo[1,2-a]pyrazin-3-yl)glycinate], the IC50 at BRD4 (setting [3]) came to 4.96 µM.
In the case of `Cc1noc(C)c1-c1ccc(-c2nc3ccc(Cl)cn3c2NC(C)(C)C)cc1` [UMB31, N-(t-Butyl)-6-chloro-2-(4-(3,5-dimethylisoxazol-4-yl)phenyl)-imidazo-[1,2-α]pyridin-3-amine], the IC50 on BRD4 (setting [2]) and at BRD4 (setting [3]) was 1.17 µM each time. Besides, the EC50 in assay [1] and in assay [1] (read-out: 797--EC50 (μM)) was 2.19 µM throughout.
`Cc1noc(C)c1-c1ccc(-c2nc3cnccn3c2NC(C)(C)C)nc1` [UMB54, N-(tert-butyl)-2-(5-(3,5-dimethylisoxazol-4-yl)pyridin-2-yl)imidazo[1,2-a]pyrazin-3-amine]: the IC50 on BRD4 (setting [4]) is 12.9 µM. Besides, the EC50 in assay [1] (read-out: 797--EC50 (μM)) is 8.29 µM.
Regarding `Cc1ccc2nc(-c3ccc(-c4c(C)noc4C)cc3)c(NC(C)(C)C)n2c1` [Compound 27a, N-(tert-butyl)-2-(4-(3,5-dimethylisoxazol-4-yl)phenyl)-6-methylimidazo[1,2-a]pyridin-3-amine], the IC50 on BRD4 (setting [3]) is 3.17 µM.
On to `Cc1noc(C)c1-c1ccc(-c2nc3ccc(Cl)cn3c2NCc2ccccc2)cc1` [UMB20, N-Benzyl-6-chloro-2-(4-(3,5-dimethylisoxazol-4-yl)phenyl)imidazo[1,2-α]pyridin-3-amine], for which the IC50 on BRD4 (setting [2]) and on BRD4 (setting [3]) was 11.8 µM in each case. For the same compound, the EC50 in assay [1] and in assay [1] (read-out: 797--EC50 (μM)) was 18.4 µM in each case.
Compound `Cc1noc2ccc(-c3ccc(-c4nc5ccccn5c4NCc4ccccc4)cc3)cc12` [UMB22] showed an IC50 at BRD4 (setting [2]) of 68.3 µM. Also, a half-maximal effect in assay [1] (EC50) was put at 12.4 µM.
Turning to `COc1ccc(Nc2c(-c3ccc(-c4c(C)noc4C)cc3)nc3ccccn23)cc1` [UMB30, 2-(4-(3,5-Dimethylisoxazol-4-yl)phenyl)-N-(4-methoxyphenyl)imidazo-[1,2-α]pyridin-3-amine], the IC50 at BRD4 (setting [2]) and at BRD4 (setting [3]) was 2.76 µM each time. Besides, the EC50 in assay [1] and in assay [1] (read-out: 797--EC50 (μM)) was 7.36 µM in each case.
For `COc1ccc(Nc2c(-c3ccc(-c4c(C)noc4C)cc3)nc3cnccn23)cc1` [UMB25, 2-(4-(3,5-Dimethylisoxazol-4-yl)phenyl)-N-(4-methoxyphenyl)imidazo[1,2-a]pyrazin-3-amine], the IC50 at BRD4 (setting [3]) turned out to be 7.86 µM. The EC50 in assay [1] and in assay [1] (read-out: 797--EC50 (μM)) was 32.8 µM in each case.
`Cc1noc(C)c1-c1ccc(-c2nc3c(C(F)(F)F)cccn3c2NC(C)(C)C)cc1` [Compound 28a, N-(tert-butyl)-2-(4-(3,5-dimethylisoxazol-4-yl)phenyl)-8-(trifluoromethyl)imidazo[1,2-a]pyridin-3-amine]: the IC50 on BRD4 (setting [3]) stood at 11.9 µM.
For the compound `COc1cc(-c2c(C)noc2C)ccc1-c1nc2cnccn2c1NC(C)C` [Compound 40a, 2-(4-(3,5-dimethylisoxazol-4-yl)-2-methoxyphenyl)-N-isopropylimidazo[1,2-a]pyrazin-3-amine], the IC50 on BRD4 (setting [4]) was 0.474 µM.
In the case of `CCCCNc1c(-c2ccc(-c3c(C)noc3C)cc2)nc2cnccn12` [Compound 35a, N-butyl-2-(4-(3,5-dimethylisoxazol-4-yl)phenyl)imidazo[1,2-a]pyrazin-3-amine], the IC50 at BRD4 (setting [3]) turned out to be 1.66 µM.
With `Cc1noc(C)c1-c1ccc(-c2nc3cnccn3c2NC(C)(C)C)cn1` [UMB53, N-(tert-butyl)-2-(6-(3,5-dimethylisoxazol-4-yl)pyridin-3-yl)imidazo[1,2-a]pyrazin-3-amine], the IC50 at BRD4 (setting [4]) amounted to 51.9 µM. Also, in assay [1] (read-out: 797--EC50 (μM)), the EC50 is greater than 100 µM.
The compound `Cc1noc(C)c1-c1ccc(-c2nc3cnccn3c2NCC(=O)O)cc1` [Compound 22a, 2-((2-(4-(3,5-Dimethylisoxazol-4-yl)phenyl)imidazo[1,2-a]pyrazin-3-yl)amino)acetic acid] returned an IC50 on BRD4 (BRD4--IC50 (μM), Table 6, biochemical) greater than 100 µM.
With `COc1ccc(Nc2c(-c3ccc(-c4c(C)noc4C)cc3)nc3ccc(Cl)cn23)cc1` [UMB23, 6-Chloro-2-(4-(3,5-dimethylisoxazol-4-yl)phenyl)-N-(4-methoxy-phenyl)imidazo-[1,2-α]pyridine-3-amine], the IC50 on BRD4 (setting [2]) and at BRD4 (setting [3]) was 31.5 µM in each case. Besides, the EC50 in assay [1] and in assay [1] (read-out: 797--EC50 (μM)) was 20.7 µM throughout.
Regarding `CCOC(=O)CNc1c(-c2ccc(-c3c(C)noc3C)cc2)nc2cnccn12` [Compound 23a, Ethyl 2-((2-(4-(3,5-dimethylisoxazol-4-yl)phenyl)imidazo[1,2-a]pyrazin-3-yl)amino)acetate], the half-maximal inhibitory concentration (IC50) on BRD4 (setting [3]) was 4.53 µM.
As for `Cc1noc(C)c1-c1ccc(-c2nc3ccccn3c2N)cc1` [Compound 12a, 2-(4-(3,5-Dimethylisoxazol-4-yl)phenyl)imidazo[1,2-a]pyridin-3-amine], the 50% inhibitory concentration (IC50) at BRD4 (setting [3]) was 3.89 µM.
On to `Cc1noc(C)c1-c1ccc(-c2nc3ncccn3c2NC(C)(C)C)cc1` [Compound 33a, N-(Tert-butyl)-2-(4-(3,5-dimethylisoxazol-4-yl)phenyl)imidazo[1,2-a]pyrimidin-3-amine], for which the IC50 at BRD4 (setting [3]) is 0.86 µM.
With `Cc1noc(C)c1-c1ccc(-c2nc3ccc(C(=O)O)cn3c2NC(C)(C)C)cc1` [Compound 30a, 3-(Tert-butylamino)-2-(4-(3,5-dimethylisoxazol-4-yl)phenyl)imidazo[1,2-a]pyridine-6-carboxylic acid], the IC50 at BRD4 (setting [3]) came to 0.968 µM.
In the case of `Cc1noc(C)c1-c1ccc(-c2nc3cnccn3c2N[C@@H](C)c2ccccc2)cc1` [Compound 21a, (S)-2-(4-(3,5-dimethylisoxazol-4-yl)phenyl)-N-(1-phenylethyl)imidazo[1,2-a]pyrazin-3-amine], at BRD4 (setting [3]), the concentration for half-maximal inhibition (IC50) was 2.86 µM.
Take `COC(=O)c1ccc2nc(-c3ccc(-c4c(C)noc4C)cc3)c(NC(C)(C)C)n2c1` [Compound 29a, Methyl 3-(tert-butylamino)-2-(4-(3,5-dimethylisoxazol-4-yl)phenyl)imidazo[1,2-a]pyridine-6-carboxylate]: at BRD4 (setting [3]), the IC50 was determined as 1.62 µM.
Regarding `COc1cc(-c2c(C)noc2C)ccc1-c1nc2cnccn2c1NC(C)(C)C` [Compound 39a, N-(tert-butyl)-2-(4-(3,5-dimethylisoxazol-4-yl)-2-methoxyphenyl)imidazo[1,2-a]pyrazin-3-amine], the IC50 on BRD4 (setting [4]) came out at 0.562 µM.
For the compound `Cc1noc(C)c1-c1ccc(-c2nc3ccncn3c2NC(C)(C)C)cc1` [UMB56, N-(Tert-butyl)-2-(4-(3,5-dimethylisoxazol-4-yl)phenyl)imidazo[1,2-c]pyrimidin-3-amine], the IC50 on BRD4 (setting [3]) worked out at 20.7 µM.

(Values after patent US9975896B2, “Inhibitors of transcription factors and uses thereof” (Dana-Farber Cancer Institute, Inc., priority 2013, dated 2018).)
